Measurements reported in patent US20230074545A1, “TREATMENT OF CANCER WITH CDK12/13 INHIBITORS” (Kinnate Biopharma Inc., priority 2019, published 2023).

Experiments:
[1] = target: T1, BMPR1A (Homo sapiens, UniProt P36894); assay: Radiometric kinase panel; format: biochemical
T1 construct: either as full-length or enzymatically active fragments; purchased ProQinase GmbH (Reaction Biology)
Protocol: (§1) The compounds 1-5 (see Table 1) were assayed for kinase activity at ProQinase (ProQinase GmbH, Reaction Biology; Freiburg, Germany) using their commercially available radiometric kinase assay services. Briefly, the compounds were provided as solids and were dissolved to 1×10^−03 M/100% DMSO stock solutions on the day of assay. All protein kinases were provided by ProQinase and were expressed in Sf9 insect cells or in E. coli as recombinant GST-fusion proteins or His-tagged proteins, either as full-length or enzymatically active fragments. All kinases were produced from human cDNAs and purified by either GSH-affinity chromatography or immobilized metal. The purity of the protein kinases was examined by SDS-PAGE/Coomassie staining, the identity was checked by mass spectroscopy. A radiometric protein kinase assay (^33PanQinase® Activity Assay) was used for measuring the kinase activity of the protein kinase. All kinase assays were performed in 96-well FlashPlates™ from PerkinElmer (Boston, Mass., USA) in a 50 microliter reaction volume. The reaction cocktail was pipetted in four steps in the following order: 1) 25 microliter of assay buffer (standard buffer/[gamma-^33P]-ATP); 2) 10 microliter of ATP solution (in H2O); 3) 5 microliter of test compound (in 10% DMSO); 4) 10 microliter of enzyme/substrate mixture.
(§2) Compound 4 was analyzed for selectivity against a panel of other kinases at ProQinase using their commercially available radiometric kinase assay services and the methods described in Example 1.

[2] = target: T2, CDK9/CycT1 (Homo sapiens, UniProt P50750); assay: Radiometric kinase panel; format: biochemical
T2 construct: either as full-length or enzymatically active fragments; purchased ProQinase GmbH (Reaction Biology)
T2 sequence (P50750 whole entry, the tested form may be a part): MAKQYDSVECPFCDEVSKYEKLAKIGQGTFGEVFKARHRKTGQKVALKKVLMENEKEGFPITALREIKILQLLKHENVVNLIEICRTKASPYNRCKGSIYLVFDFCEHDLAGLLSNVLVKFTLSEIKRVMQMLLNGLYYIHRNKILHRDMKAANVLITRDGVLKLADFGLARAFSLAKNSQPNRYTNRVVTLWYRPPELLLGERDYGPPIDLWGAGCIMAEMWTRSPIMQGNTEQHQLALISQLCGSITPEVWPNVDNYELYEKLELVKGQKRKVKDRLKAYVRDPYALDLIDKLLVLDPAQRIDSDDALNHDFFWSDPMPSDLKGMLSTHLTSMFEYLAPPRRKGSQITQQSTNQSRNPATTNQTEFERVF
T2 sequence (O60563 whole entry partner, the tested form may be a part): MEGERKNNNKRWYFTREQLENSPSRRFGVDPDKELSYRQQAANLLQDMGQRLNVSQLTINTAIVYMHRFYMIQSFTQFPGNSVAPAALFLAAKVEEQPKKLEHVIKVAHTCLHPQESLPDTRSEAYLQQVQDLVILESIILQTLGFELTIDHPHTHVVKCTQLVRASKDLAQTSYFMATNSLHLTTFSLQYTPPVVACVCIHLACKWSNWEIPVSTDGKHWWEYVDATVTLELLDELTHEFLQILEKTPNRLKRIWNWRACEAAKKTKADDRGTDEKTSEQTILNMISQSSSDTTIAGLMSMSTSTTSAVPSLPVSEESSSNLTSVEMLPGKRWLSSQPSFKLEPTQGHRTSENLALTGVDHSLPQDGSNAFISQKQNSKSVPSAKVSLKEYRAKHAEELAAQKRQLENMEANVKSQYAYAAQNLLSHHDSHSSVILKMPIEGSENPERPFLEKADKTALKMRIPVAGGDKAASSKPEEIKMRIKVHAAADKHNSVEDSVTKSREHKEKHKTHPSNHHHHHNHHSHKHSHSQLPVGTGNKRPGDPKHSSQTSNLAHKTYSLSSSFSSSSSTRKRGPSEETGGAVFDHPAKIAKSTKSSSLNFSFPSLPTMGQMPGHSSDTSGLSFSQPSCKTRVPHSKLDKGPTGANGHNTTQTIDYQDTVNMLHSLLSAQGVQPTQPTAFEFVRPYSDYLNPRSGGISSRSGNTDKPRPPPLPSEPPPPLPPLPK
Protocol: as §1, §2

[3] = target: T3, MAP4K5 (Homo sapiens, UniProt Q9Y4K4); assay: Radiometric kinase panel; format: biochemical
T3 construct: purchased ProQinase GmbH (Reaction Biology)
T3 sequence (Q9Y4K4 whole entry): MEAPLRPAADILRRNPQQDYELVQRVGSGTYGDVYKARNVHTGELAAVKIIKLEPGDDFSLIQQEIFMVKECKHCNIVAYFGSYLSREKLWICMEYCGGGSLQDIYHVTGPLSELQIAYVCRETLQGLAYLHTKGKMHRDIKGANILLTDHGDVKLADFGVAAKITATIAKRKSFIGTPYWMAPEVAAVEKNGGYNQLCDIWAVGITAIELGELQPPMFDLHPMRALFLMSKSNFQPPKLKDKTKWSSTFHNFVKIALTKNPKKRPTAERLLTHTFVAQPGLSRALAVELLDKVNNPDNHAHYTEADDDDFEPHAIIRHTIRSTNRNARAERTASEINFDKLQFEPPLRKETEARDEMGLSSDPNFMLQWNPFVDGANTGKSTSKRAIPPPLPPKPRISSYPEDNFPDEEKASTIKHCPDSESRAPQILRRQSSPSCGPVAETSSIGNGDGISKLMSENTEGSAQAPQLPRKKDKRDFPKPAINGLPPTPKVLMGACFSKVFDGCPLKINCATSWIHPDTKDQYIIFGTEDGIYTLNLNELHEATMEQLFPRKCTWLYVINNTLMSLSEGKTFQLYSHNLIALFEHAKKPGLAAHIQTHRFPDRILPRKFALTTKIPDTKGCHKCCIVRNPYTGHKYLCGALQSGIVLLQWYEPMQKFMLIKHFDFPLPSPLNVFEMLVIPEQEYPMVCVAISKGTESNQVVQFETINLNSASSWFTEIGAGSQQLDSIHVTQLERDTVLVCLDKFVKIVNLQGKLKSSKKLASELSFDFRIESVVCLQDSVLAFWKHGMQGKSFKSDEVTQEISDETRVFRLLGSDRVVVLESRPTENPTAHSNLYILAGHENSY
Protocol: as §1, §2

[4] = target: T4, TEC (Homo sapiens, UniProt P42680); assay: Radiometric kinase panel; format: biochemical
T4 construct: either as full-length or enzymatically active fragments; purchased ProQinase GmbH (Reaction Biology)
T4 sequence (P42680 whole entry, the tested form may be a part): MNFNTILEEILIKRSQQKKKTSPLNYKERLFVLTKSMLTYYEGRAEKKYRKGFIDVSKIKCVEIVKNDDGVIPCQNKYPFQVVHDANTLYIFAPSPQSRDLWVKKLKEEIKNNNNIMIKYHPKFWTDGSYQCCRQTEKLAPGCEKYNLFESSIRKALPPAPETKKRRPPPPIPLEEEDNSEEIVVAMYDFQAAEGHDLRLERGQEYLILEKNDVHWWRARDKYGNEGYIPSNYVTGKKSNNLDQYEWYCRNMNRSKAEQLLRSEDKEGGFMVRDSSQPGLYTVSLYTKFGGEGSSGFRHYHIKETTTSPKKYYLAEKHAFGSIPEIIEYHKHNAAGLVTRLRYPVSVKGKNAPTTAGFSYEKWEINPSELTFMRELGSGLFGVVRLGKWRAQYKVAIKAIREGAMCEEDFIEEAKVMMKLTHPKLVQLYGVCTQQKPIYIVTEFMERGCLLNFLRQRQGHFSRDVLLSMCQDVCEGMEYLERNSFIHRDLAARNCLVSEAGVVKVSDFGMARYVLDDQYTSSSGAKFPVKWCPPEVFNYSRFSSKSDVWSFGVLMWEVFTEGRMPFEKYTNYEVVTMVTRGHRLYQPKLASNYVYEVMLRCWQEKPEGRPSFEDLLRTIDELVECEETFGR
Protocol: as §1, §2

[5] = target: T5, WEE1 (Homo sapiens, UniProt P30291); assay: Radiometric kinase panel; format: biochemical
T5 construct: either as full-length or enzymatically active fragments; purchased ProQinase GmbH (Reaction Biology)
T5 sequence (P30291 whole entry, the tested form may be a part): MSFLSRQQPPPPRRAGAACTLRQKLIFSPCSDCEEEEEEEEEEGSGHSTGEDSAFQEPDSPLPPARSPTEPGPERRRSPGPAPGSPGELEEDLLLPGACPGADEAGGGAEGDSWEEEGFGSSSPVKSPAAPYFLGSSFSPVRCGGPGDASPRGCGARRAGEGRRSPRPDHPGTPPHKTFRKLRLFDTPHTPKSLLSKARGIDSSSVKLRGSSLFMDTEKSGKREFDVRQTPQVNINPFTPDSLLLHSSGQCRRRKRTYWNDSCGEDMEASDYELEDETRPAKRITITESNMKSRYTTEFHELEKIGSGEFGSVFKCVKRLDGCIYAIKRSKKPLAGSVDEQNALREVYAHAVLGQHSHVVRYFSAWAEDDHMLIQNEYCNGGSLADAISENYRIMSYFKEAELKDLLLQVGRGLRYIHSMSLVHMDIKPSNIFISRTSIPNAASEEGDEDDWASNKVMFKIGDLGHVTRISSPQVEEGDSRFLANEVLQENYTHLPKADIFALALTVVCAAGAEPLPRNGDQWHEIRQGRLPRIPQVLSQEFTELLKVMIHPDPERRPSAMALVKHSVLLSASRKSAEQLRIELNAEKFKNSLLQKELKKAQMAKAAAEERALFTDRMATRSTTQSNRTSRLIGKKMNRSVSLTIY
Protocol: as §1, §2

[6] = tested on: OVCAR-3 tumors; assay: OVCAR-3 mouse xenograft model of ovarian cancer; format: in vivo, NOD SCID female mice
Text: To test the efficacy of the compounds in vivo, studies were done in mouse xenografts. For all studies, general procedures for animal care and housing were done in accordance with the standard, Commission on Life Sciences, National Research Council, Standard operating procedures (SOPs) of Pharmaron, Inc (Beijing, China). The mice were kept in laminar flow rooms at constant temperature and humidity with 3-5 mice in each cage with bedding changed once weekly. Animals were housed in polycarbonate cage which is in the size of 300×180×150 mm^3 and in an environmentally monitored, well-ventilated room maintained at a temperature of (22±3° C.) and a relative humidity of 40%-70% on a 12:12 light:dark cycle with full spectrum lighting. Each animal was assigned an identification number; the following identification method will be applied. Cage cards were labeled with such information as study number, group, sex, dose, animal number, initiation date, study director and telephone number. Animals were identified by ear coding. Animals had free access to irradiation sterilized dry granule food during the entire study period except for time periods specified by the protocol.
For the OVCAR-3 study, NOD SCID female mice bearing the OVCAR-3 tumors were randomized into 5 groups (n=9 mice per group) 17 day post tumor implantation with an average tumor volume of 150 mm^3. Each group received either vehicle (3% DMSO, 97.0% (20% HP-β-CD in water) or 5.0, 10, 20 and 25.0 mg/kg of compound 4 biweekly (Monday, Thursday), a total of 4 doses were intravenously administered through the course of 14 day efficacy study. Immediately after every treatment dose, a saline flush of 0.1 mL were also administered. One last dose was intravenously administered on Day 15 for end of study PK plasma and PD tumor collections as indicated in the protocol. Tumor volumes were measured by caliper 2 times a week and body weights of all animals were recorded throughout the study.
Protocol-required measurements and observations were recorded manually onto excel spread sheets. All statistical tests were conducted, and the level of significance was set at 5% or P<0.05. The group means, standard deviation was calculated for all measurement parameters as study designed. Two-way RM ANOVA followed by Tukeys post hoc comparisons of the means was utilized for this study.

[7] = tested on: RNA polymerase II; assay: Phosphorylation of RNA polymerase II (pS2/S2) in HCC70 xenograft; format: in vivo, CB-17 SCID mice; conditions: intravenous; compound 4 20 or 25 mg/kg, compound 5 10 or 25 mg/kg; 0.5, 6 and 24 hours after the dose
Protocol: The ability of compound 4 and compound 5 to inhibit phosphorylation of RNA polymerase II at the S2 unit was analyzed in a mouse xenograft model of triple-negative breast cancer. CB-17 SCID mice were inoculated with the HCC70 cells as the in vivo model for triple negative breast cancer. Each mouse was inoculated subcutaneously on the right flank with HCC70 tumor cells (5×106) in 0.1 mL of RPMI-1640 Medium and Matrigel mixture (1:1 ratio) for tumor development. The treatment started when the mean tumor size reached approximately 100-150 mm^3. Mice were treated intravenously with vehicle only, 20 mg/kg of compound 4, 25 mg/kg of compound 4, 10 mg/kg of compound 5, or 25 mg/kg of compound 5 for 2 hours. Measurements were taken at 0.5 hours, 6 hours and 24 hours after the dose. The amount of phosphorylated RNA polymerase II and the total amount of RNA polymerase II was analyzed. The values were normalized by taking the ratio of the phosphorylated RNA polymerase II to the total RNA polymerase II (pS2/S2).

[8] = tested on: BRCA1; assay: DDR gene expression in HCC70 xenograft tumor cells; format: in vivo, CB-17 SCID mice; conditions: single intravenous dose 20 or 25 mg/kg; 6 and 24 hours after dose
Protocol: A triple-negative xenograft model of breast cancer was used in this experiment. CB-17 SCID mice were inoculated with the HCC70 cells as the in vivo model for triple negative breast cancer. Each mouse was inoculated subcutaneously on the right flank with HCC70 tumor cells (5×10^6) in 0.1 mL of RPMI-1640 Medium and Matrigel mixture (1:1 ratio) for tumor development. The treatment started when the mean tumor size reached approximately 100-150 mm^3. Mice were treated with a single dose of either vehicle, 20 mg/kg compound 4, or 25 mg/kg of compound 4 intravenously. 0.5, 6, and 24 hours post dose, tumor cells were collected and analyzed for gene expression.

[9] = tested on: non-CDK12/13 kinases; assay: Radiometric kinase panel, summary; format: biochemical, human; conditions: 1 μM
Protocol: as §1, with “The reaction cocktail was pipetted in four steps in the following order: 1) 25 microliter of assay buffer (standard buffer/[gamma-^33P]-ATP); 2) 10 microliter of ATP solution (in H2O); 3) 5 microliter of test compound (in 10% DMSO); 4) 10 microliter of enzyme/substrate mixture.” left out
as §2

T1 sequence (P36894 24-532): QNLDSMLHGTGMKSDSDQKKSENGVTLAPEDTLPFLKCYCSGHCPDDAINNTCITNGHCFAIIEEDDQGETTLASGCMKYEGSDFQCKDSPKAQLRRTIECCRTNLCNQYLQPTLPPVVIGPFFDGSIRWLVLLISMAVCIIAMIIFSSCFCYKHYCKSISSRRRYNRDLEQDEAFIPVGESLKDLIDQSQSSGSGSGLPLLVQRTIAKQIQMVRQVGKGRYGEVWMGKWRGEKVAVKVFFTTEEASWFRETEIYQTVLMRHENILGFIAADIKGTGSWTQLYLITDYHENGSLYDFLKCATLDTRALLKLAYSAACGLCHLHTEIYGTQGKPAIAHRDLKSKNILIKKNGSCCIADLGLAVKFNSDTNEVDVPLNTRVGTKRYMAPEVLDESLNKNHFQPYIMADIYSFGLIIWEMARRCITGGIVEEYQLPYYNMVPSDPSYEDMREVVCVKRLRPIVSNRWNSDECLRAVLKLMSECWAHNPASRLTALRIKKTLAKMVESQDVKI

## C=CC(=O)Nc1ccc(C(=O)N2CC[C@@H](Nc3ncc(C#N)cn3)C2)cc1 [Compound 4, (R)-N-(4-(3-((5-cyanopyrimidin-2-yl)amino)pyrrolidine-1-carbonyl)phenyl)acrylamide]
[1]
  inhibition at 1 µM: 2%
[2]
  inhibition at 1 µM: 27%
[3]
  inhibition at 1 µM: 0%
[4]
  inhibition at 1 µM: 5%
[5]
  inhibition at 1 µM: -5%
[6]; 5.0 mg/kg intravenously biweekly for 14 days, compared to vehicle control
  T/C: 36%
[6]; 10 mg/kg intravenously biweekly for 14 days, compared to vehicle control
  T/C: 13%
[6]; 20 mg/kg intravenously biweekly for 14 days
  T/C: −7%
[6]; 25 mg/kg intravenously biweekly for 14 days
  T/C: −9%
[7]
  pS2/S2 compared to treatment with the vehicle alone: reduced the pS2/S2 at all time points
[8]
  BRCA1 expression in tumor cells: reduced
[9]
  average percent of inhibition against non-CDK12/13 kinases: low average percent of inhibition
